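Growth conditions: 96-well plates. Treatment: test compound, 48 hours, 5 concentrations. Analysis: linear interpolation between bracketing concentrations; unreached endpoints set to highest concentration. GI50 marks 50% less growth.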 Activity calls are given as the source filed them. No stated cut-off is given here; in the data, active = GI50 up to about 1.1 µM and inactive = higher.
Key:
Assay in all cases: inhibition of tumour cell growth, NCI panel, 48 h
OVCAR-3 = test system: OVCAR-3
HCT-116 = test system: HCT-116
786-0 = test system: 786-0
NCI-H23 = test system: NCI-H23
SK-OV-3 = test system: SK-OV-3
U-251 = test system: U-251
RXF 393 = test system: RXF 393
HOP-92 = test system: HOP-92
SW-620 = test system: SW-620
SR = test system: SR
EKVX = test system: EKVX
ACHN = test system: ACHN
SF-268 = test system: SF-268
OVCAR-4 = test system: OVCAR-4
LOX IMVI = test system: LOX IMVI
HOP-62 = test system: HOP-62
A498 = test system: A498

Measured: GI50

CC1Nc2ccccc2NC1C=C(C#N)C#N (centres undefined)
inactive: OVCAR-3 15.8 µM | HCT-116 13.5 µM | 786-0 16 µM | NCI-H23 17.2 µM | SK-OV-3 21.8 µM | U-251 16.1 µM | RXF 393 16.6 µM | HOP-92 15.1 µM | SW-620 12.2 µM | SR 5.61 µM | EKVX 19.5 µM | ACHN 18.3 µM | SF-268 14.7 µM | OVCAR-4 15.9 µM | LOX IMVI 11.3 µM | HOP-62 20.4 µM

C[C@]12CCCC(=O)C1(O)C[C@H](C(=O)O)CC2 (some centres undefined)
inactive: OVCAR-3 > 100 µM | HCT-116 > 100 µM | 786-0 > 100 µM | NCI-H23 > 100 µM | SK-OV-3 > 100 µM | U-251 > 100 µM | HOP-92 > 100 µM | A498 > 100 µM | SW-620 > 100 µM | SR > 100 µM | ACHN > 100 µM | SF-268 > 100 µM | OVCAR-4 > 100 µM | LOX IMVI > 100 µM | HOP-62 > 100 µM

OC1(c2ccccc2)OC(C#Cc2ccccc2)(c2ccccc2)c2ccccc21 (centres undefined)
inactive: OVCAR-3 2.31 µM | HCT-116 1.7 µM | 786-0 3.73 µM | NCI-H23 3.47 µM | SK-OV-3 1.46 µM | U-251 4.12 µM | RXF 393 1.95 µM | HOP-92 4 µM | A498 2.82 µM | SW-620 4.12 µM | SR 2.5 µM | EKVX 3.19 µM | SF-268 4.18 µM | OVCAR-4 2.82 µM | LOX IMVI 2.91 µM | HOP-62 15.4 µM

CCOC(=O)c1c2cccccc2n2c(=O)cc(C)nc12
inactive: OVCAR-3 > 100 µM | 786-0 > 100 µM | NCI-H23 > 100 µM | U-251 > 100 µM | RXF 393 > 100 µM | A498 > 100 µM | SW-620 > 100 µM | SR > 100 µM | EKVX > 100 µM | ACHN > 100 µM | SF-268 69.8 µM | OVCAR-4 > 100 µM | LOX IMVI > 100 µM | HOP-62 > 100 µM

CC(C)(C)c1cc(CCC(=O)Nc2ccc(Cl)cc2Cl)nc(N)n1
inactive: OVCAR-3 > 100 µM | HCT-116 > 100 µM | 786-0 > 100 µM | NCI-H23 > 100 µM | SK-OV-3 > 100 µM | U-251 > 100 µM | RXF 393 > 100 µM | HOP-92 91.6 µM | SW-620 > 100 µM | SR > 100 µM | EKVX > 100 µM | ACHN > 100 µM | SF-268 > 100 µM | OVCAR-4 > 100 µM | LOX IMVI > 100 µM | HOP-62 > 100 µM

COc1cc(C2c3cc4c(cc3[C@@H](N(C)C)[C@H]3COC(=O)C23)OCO4)cc(OC)c1O (some centres undefined)
inactive: HCT-116 38 µM | 786-0 33.2 µM | NCI-H23 37.7 µM | SK-OV-3 37 µM | U-251 34 µM | RXF 393 86.7 µM | HOP-92 11.2 µM | A498 23.3 µM | SW-620 38.1 µM | SR 54.5 µM | EKVX 64.4 µM | ACHN 41.5 µM | SF-268 46.7 µM | OVCAR-4 42.9 µM | LOX IMVI 33.3 µM | HOP-62 50.4 µM

O=C(O)C1=C(C(=O)Nc2ccccc2)C2C=CC1C2 (centres undefined)
inactive: OVCAR-3 > 100 µM | HCT-116 > 100 µM | 786-0 > 100 µM | NCI-H23 > 100 µM | SK-OV-3 > 100 µM | U-251 > 100 µM | RXF 393 > 100 µM | HOP-92 > 100 µM | A498 > 100 µM | SW-620 > 100 µM | SR > 100 µM | EKVX > 100 µM | ACHN > 100 µM | SF-268 > 100 µM | OVCAR-4 > 100 µM | LOX IMVI > 100 µM | HOP-62 > 100 µM

O=C(CC(=O)c1ccccc1)C(=O)Nc1ccc(Cl)cc1
inactive: OVCAR-3 > 100 µM | HCT-116 > 42.8 µM | 786-0 > 67.6 µM | NCI-H23 > 100 µM | SK-OV-3 > 100 µM | U-251 > 100 µM | RXF 393 > 100 µM | HOP-92 > 100 µM | A498 > 100 µM | SW-620 > 42.8 µM | SR > 100 µM | EKVX > 100 µM | ACHN > 100 µM | SF-268 > 100 µM | OVCAR-4 > 100 µM | LOX IMVI > 42 µM | HOP-62 > 100 µM

COc1cc(C2Oc3cc(-c4oc5cc(O)cc(O)c5c(=O)c4O)ccc3OC2CO)ccc1O (centres undefined) [DEHYDROSILYLBIN]
inactive: OVCAR-3 21.5 µM | HCT-116 4.71 µM | 786-0 8.55 µM | NCI-H23 4.3 µM | SK-OV-3 21.4 µM | U-251 6.68 µM | RXF 393 2.31 µM | HOP-92 10.5 µM | A498 9.27 µM | SW-620 8.55 µM | SR 4.61 µM | ACHN 7.64 µM | SF-268 7.46 µM | OVCAR-4 20.7 µM | HOP-62 11.2 µM

Nc1nc(N)c(N=O)c(Nc2ccc(I)cc2)n1
inactive: OVCAR-3 13.2 µM | HCT-116 14.3 µM | 786-0 25.5 µM | NCI-H23 18.2 µM | SK-OV-3 5.33 µM | U-251 25.3 µM | RXF 393 17.9 µM | SW-620 30 µM | SR 10.8 µM | EKVX > 100 µM | ACHN 24 µM | SF-268 13.9 µM | LOX IMVI 9.12 µM | HOP-62 16.6 µM

Cc1nc(=O)n2c(C)n[nH]c2c1C(=O)Nc1cc(Cl)cc(Cl)c1
inactive: OVCAR-3 14.2 µM | HCT-116 27.5 µM | 786-0 28.4 µM | NCI-H23 24.6 µM | SK-OV-3 29 µM | U-251 21.1 µM | RXF 393 11.9 µM | HOP-92 17.5 µM | SW-620 41.5 µM | SR 19.9 µM | EKVX 31.1 µM | ACHN 20 µM | SF-268 33.3 µM | OVCAR-4 29.2 µM | LOX IMVI 36.2 µM | HOP-62 25.6 µM

COC(=O)C(=O)C(C#N)c1ccc(Cl)c(Cl)c1 (centres undefined)
inactive: OVCAR-3 > 100 µM | HCT-116 > 100 µM | 786-0 > 100 µM | NCI-H23 > 100 µM | SK-OV-3 > 100 µM | U-251 > 100 µM | HOP-92 > 100 µM | SW-620 > 100 µM | SR > 100 µM | EKVX 64.3 µM | ACHN > 100 µM | SF-268 > 100 µM | LOX IMVI > 100 µM

OCCC1(O)CCC(O)CC1 (centres undefined)
inactive: OVCAR-3 > 100 µM | HCT-116 > 100 µM | 786-0 > 100 µM | NCI-H23 > 100 µM | SK-OV-3 > 100 µM | U-251 > 100 µM | HOP-92 > 100 µM | A498 > 100 µM | SW-620 > 100 µM | SR > 100 µM | EKVX > 100 µM | SF-268 > 100 µM | OVCAR-4 > 100 µM | LOX IMVI > 100 µM | HOP-62 > 100 µM

O=C1C(O)=C(CCCc2ccc(Oc3ccccc3)cc2)C(=O)c2ccccc21
inactive: OVCAR-3 6.53 µM | HCT-116 3.7 µM | 786-0 5.64 µM | NCI-H23 4.58 µM | SK-OV-3 51.4 µM | U-251 5.64 µM | RXF 393 14.4 µM | HOP-92 12.9 µM | A498 10.3 µM | SW-620 8.63 µM | SR 15.2 µM | EKVX 11.6 µM | ACHN 5.93 µM | SF-268 7.64 µM | OVCAR-4 19.4 µM | LOX IMVI 3.57 µM | HOP-62 10.7 µM

CC(O)(c1ccc(OCCC[N+](C)(C)C)cc1)C(C)(O)c1ccc(OCCC[N+](C)(C)C)cc1 (centres undefined)
inactive: OVCAR-3 > 100 µM | HCT-116 > 100 µM | 786-0 > 100 µM | NCI-H23 > 100 µM | SK-OV-3 > 100 µM | U-251 > 100 µM | RXF 393 > 100 µM | HOP-92 > 100 µM | A498 > 100 µM | SW-620 > 100 µM | EKVX > 100 µM | ACHN > 100 µM | SF-268 > 100 µM | OVCAR-4 > 100 µM | LOX IMVI > 100 µM | HOP-62 > 100 µM

c1ccc(C2N=NN(c3ccccc3)C2N2CCCCC2)cc1 (centres undefined)
inactive: OVCAR-3 > 100 µM | HCT-116 > 100 µM | 786-0 64.7 µM | NCI-H23 > 100 µM | SK-OV-3 38.6 µM | U-251 56 µM | HOP-92 17.3 µM | SW-620 > 100 µM | SR > 100 µM | EKVX > 100 µM | ACHN > 100 µM | SF-268 46.5 µM | OVCAR-4 > 100 µM | LOX IMVI > 100 µM | HOP-62 42.9 µM

Cn1c(=O)c(C2c3ccccc3Oc3c2c(=O)n(C)c2ccccc32)c(O)c2ccccc21 (centres undefined)
inactive: OVCAR-3 52 µM | HCT-116 43.2 µM | 786-0 27.2 µM | NCI-H23 40.6 µM | SK-OV-3 63.8 µM | U-251 41.2 µM | RXF 393 63 µM | HOP-92 42.9 µM | SW-620 43.9 µM | SR 42.1 µM | EKVX 41.2 µM | ACHN 39.8 µM | SF-268 66.4 µM | OVCAR-4 86.7 µM | LOX IMVI 37.9 µM | HOP-62 > 100 µM
